Laboratory results: patent US9169259B2, “Imidazopyridazine compounds” (Hoffmann-La Roche Inc., priority 2011, dated 2015)
Where a name gives a salt, the structure may show the parent alone.

Biological target: recombinant human SYK360-635 (Homo sapiens (Human), UniProt P43405)
Assay: SYK kinase assay (33P ATP filtration, IC50 of SYK inhibition)
Format: biochemical
Details: truncated SYK aa 360-635 0.5 nM, ATP 20 μM, peptide 5 μM, 30° C. 15 min; read-out: ENZYME_FILTRATION_IC50
Description: Determination of IC50 of Spleen Tyrosine Kinase (SYK) Inhibition:
SYK kinase assay is a standard kinase assay adapted to a 96 well plate format. This assay is performed in 96-well format for IC50 determination with […] which represented 10 half log dilutions and a 40 μL reaction volume. The assay measures the incorporation of radiolabeled ^33P γATP into an N-terminally biotinylated peptide substrate, derived from naturally occurring phosphoacceptor consensus sequence (Biotin-11aa DY*E). Phosphorylated products were detected upon termination of reactions with EDTA and the addition of Streptavidin coated beads.
Assay plates: 96-well MultiScreen 0.65 um filter plates (Millipore Cat. No.: MADVNOB10)
final concentration: 50 mM HEPES pH7.5
BSA: Bovine Serum Albumin Fraction V, fatty acid free (Roche Diagnostics GmbH, Cat. No. 9100221) diluted to a final concentration of 0.1%
Assay Dilution Buffer (ADB): 50 mM HEPES, 0.1 mM EGTA, 0.1 mM Na Vanadate, 0.1 mM β-glycerophosphate, 10 mM MgCl2, 1 mM DTT, 0.1% BSA, pH 7.5
Bead wash buffer: 10 g/L PBS (Phosphate buffered saline) with 2M NaCl+1% phosphoric acid.
DMSO and the mixture was incubated for 10 min at RT.
The kinase reaction was initiated by the addition of 10 μL 4× substrate cocktail containing the DYE peptide substrate [0 or 5 μM], ATP [20 μM] and ^33PγATP [2 μCi/r×n]. After incubation at 30° C. for 15 min, the reaction was terminated by the transfer of 25 μL of the reaction sample to a 96 well 0.65 μm Millipore MADVNOB membrane/plate containing 200 μL 5 mM EDTA and 20% Streptavidine coated beads in PBS.
After the last wash membrane/plates were transferred to an adaptor plate, heat dried for 15 min at 60° C., and 50 μL scintillation cocktail was added to each well and 4 h later the amount of radioactivity was counted in a top counter.

| Compound | IC50 [µM] |
| --- | --- |
| CC1CCCN1c1cccc(Nc2cc(-c3ccccc3C(F)(F)F)nn3ccnc23)n1 (stereo not drawn) [Example I-48, [6-(2-Methyl-pyrrolidin-1-yl)-pyridin-2-yl]-[6-(2-trifluoromethyl-phenyl)-imidazo[1,2-b]pyridazin-8-yl]-amine hydrochloride] | 0.41 |
| C[C@H]1CCCN1c1cccc(Nc2cc(-c3ccc4ncsc4c3)nn3ccnc23)n1 [Example I-52, (6-Benzothiazol-6-yl-imidazo[1,2-b]pyridazin-8-yl)-[6-((S)-2-methyl-pyrrolidin-1-yl)-pyridin-2-yl]-amine] | 0.0362 |
| COc1ccc(Nc2cc(-c3cccc(C(=O)Nc4ccc5c(c4)CNC5=O)c3)nn3ccnc23)nc1OC [Example I-56, 3-[8-(5,6-Dimethoxy-pyridin-2-ylamino)-imidazo[1,2-b]pyridazin-6-yl]-N-(1-oxo-2,3-dihydro-1H-isoindol-5-yl)-benzamide] | 0.593 |
| COc1cc(NC(=O)c2cccc(-c3cc(Nc4ccc(OC)c(OC)n4)c4nccn4n3)c2)ccc1C(=O)O [Example I-57, 4-{3-[8-(5,6-Dimethoxy-pyridin-2-ylamino)-imidazo[1,2-b]pyridazin-6-yl]-benzoylamino}-2-methoxy-benzoic acid] | 0.00155 |
| CC1(C)CCN(c2cccc(Nc3cc(-c4cccc(C(=O)O)c4)nn4ccnc34)n2)C1 [Example I-59, 3-{8-[6-(3,3-Dimethyl-pyrrolidin-1-yl)-pyridin-2-ylamino]-imidazo[1,2-b]pyridazin-6-yl}-benzoic acid] | 0.599 |
| CC1CCC(C)N1c1cccc(Nc2cc(-c3cccc(C(=O)O)c3)nn3ccnc23)n1 (stereo not drawn) [Example I-60, 3-{8-[6-(2,5-Dimethyl-pyrrolidin-1-yl)-pyridin-2-ylamino]-imidazo[1,2-b]pyridazin-6-yl}-benzoic acid] | 0.231 |
| CC1(C)CCN(c2cccc(Nc3cc(-c4cccc(C(=O)O)c4)nn4ccnc34)n2)CC1 [Example I-61, 3-[8-(4,4-Dimethyl-3,4,5,6-tetrahydro-2H-[1,2′]bipyridinyl-6′-ylamino)-imidazo[1,2-b]pyridazin-6-yl]-benzoic acid] | 1.38 |
| COc1ccc(-c2cc(Nc3cccc(N4CCCC4C)n3)c3nccn3n2)cc1OC (stereo not drawn) [Example I-62, [6-(3,4-Dimethoxy-phenyl)-imidazo[1,2-b]pyridazin-8-yl]-[6-(2-methyl-pyrrolidin-1-yl)-pyridin-2-yl]-amine] | 0.306 |
| CC(=O)N1CCc2ccc(-c3cc(Nc4cccc(N5CCCC5C)n4)c4nccn4n3)cc2C1 (stereo not drawn) [Example I-64, 1-(7-{8-[6-(2-Methyl-pyrrolidin-1-yl)-pyridin-2-ylamino]-imidazo[1,2-b]pyridazin-6-yl}-3,4-dihydro-1H-isoquinolin-2-yl)-ethanone] | 0.0566 |
| COC(=O)c1cccc(-c2cc(Nc3cccc(N4CCC(C(C)(C)C)C4)n3)c3nccn3n2)c1 (stereo not drawn) [Example I-65, 3-{8-[6-(3-tert-Butyl-pyrrolidin-1-yl)-pyridin-2-ylamino]-imidazo[1,2-b]pyridazin-6-yl}-benzoic acid methyl ester] | 1.26 |
| CC(C)(C)C1CCN(c2cccc(Nc3cc(-c4cccc(C(=O)O)c4)nn4ccnc34)n2)C1 (stereo not drawn) [Example I-66, 3-{8-[6-(3-tert-Butyl-pyrrolidin-1-yl)-pyridin-2-ylamino]-imidazo[1,2-b]pyridazin-6-yl}-benzoic acid] | 0.696 |
| CC(C)(C)C1CCN(c2cccc(Nc3cc(-c4cccc(C(N)=O)c4)nn4ccnc34)n2)C1 (stereo not drawn) [Example I-67, 3-{8-[6-(3-tert-Butyl-pyrrolidin-1-yl)-pyridin-2-ylamino]-imidazo[1,2-b]pyridazin-6-yl}-benzamide] | 0.28 |
| CC1CCCN1c1cccc(Nc2cc(-c3cccc(CN4CCCC4)c3)nn3ccnc23)n1 (stereo not drawn) [Example I-70, [6-(2-Methyl-pyrrolidin-1-yl)-pyridin-2-yl]-[6-(3-pyrrolidin-1-ylmethyl-phenyl)-imidazo[1,2-b]pyridazin-8-yl]-amine] | 0.0608 |
| C[C@H]1CCCN1c1cccc(Nc2cc(-c3cccc(Cl)c3)nn3ccnc23)n1 [Example I-71, [6-(3-Chloro-phenyl)-imidazo[1,2-b]pyridazin-8-yl]-[6-((S)-2-methyl-pyrrolidin-1-yl)-pyridin-2-yl]-amine hydrochloride] | 0.246 |
| COc1ccc(Nc2cc(N3CCCC(NC(=O)c4ccc(C(=O)O)cc4)C3)nn3ccnc23)nc1OC (stereo not drawn) [Example I-72, N-{1-[8-(5,6-Dimethoxy-pyridin-2-ylamino)-imidazo[1,2-b]pyridazin-6-yl]-piperidin-3-yl}-terephthalamic acid] | 0.0022 |

The remaining lines, values ahead:

| IC50 [µM] | Compound |
| --- | --- |
| 0.0149 | COc1ccc(Nc2cc(N3CCCC(C(=O)Nc4ccc(C(=O)O)cc4)C3)nn3ccnc23)nc1OC (stereo not drawn) [Example I-74, 4-({1-[8-(5,6-Dimethoxy-pyridin-2-ylamino)-imidazo[1,2-b]pyridazin-6-yl]-piperidine-3-carbonyl}-amino)-benzoic acid] |
| 0.461 | COc1ccc(Nc2cc(N3CCC(C(=O)Nc4ccc(C(=O)O)cc4)C3)nn3ccnc23)nc1OC (stereo not drawn) [Example I-75, 4-({1-[8-(5,6-Dimethoxy-pyridin-2-ylamino)-imidazo[1,2-b]pyridazin-6-yl]-pyrrolidine-3-carbonyl}-amino)-benzoic acid] |
| 0.0421 | COc1ccc(Nc2cc(N3CCC(NC(=O)c4ccc(C(=O)O)cc4)C3)nn3ccnc23)nc1OC (stereo not drawn) [Example I-76, N-{1-[8-(5,6-Dimethoxy-pyridin-2-ylamino)-imidazo[1,2-b]pyridazin-6-yl]-pyrrolidin-3-yl}-terephthalamic acid] |
| 0.0639 | CC1CCCN1c1cccc(Nc2cc(-c3ccc(O)cc3)nn3ccnc23)n1 (stereo not drawn) [Example I-77, 4-{8-[6-(2-Methyl-pyrrolidin-1-yl)-pyridin-2-ylamino]-imidazo[1,2-b]pyridazin-6-yl}-phenol] |
| 0.0652 | CC1CCCN1c1cccc(Nc2cc(-c3cccnc3)nn3ccnc23)n1 (stereo not drawn) [Example I-78, [6-(2-Methyl-pyrrolidin-1-yl)-pyridin-2-yl]-(6-pyridin-3-yl-imidazo[1,2-b]pyridazin-8-yl)-amine] |
| 0.488 | CC1CCCN1c1cccc(Nc2cc(-c3ccc(F)cc3)nn3ccnc23)n1 (stereo not drawn) [Example I-79, [6-(4-Fluoro-phenyl)-imidazo[1,2-b]pyridazin-8-yl]-[6-(2-methyl-pyrrolidin-1-yl)-pyridin-2-yl]-amine] |
| 0.614 | CC1CCCN1c1cccc(Nc2cc(-c3cccc(C#N)c3)nn3ccnc23)n1 (stereo not drawn) [Example I-80, 3-{8-[6-(2-Methyl-pyrrolidin-1-yl)-pyridin-2-ylamino]-imidazo[1,2-b]pyridazin-6-yl}-benzonitrile] |
| 0.189 | CC1CCCN1c1cccc(Nc2cc(-c3ccncc3)nn3ccnc23)n1 (stereo not drawn) [Example I-81, [6-(2-Methyl-pyrrolidin-1-yl)-pyridin-2-yl]-(6-pyridin-4-yl-imidazo[1,2-b]pyridazin-8-yl)-amine] |
| 0.0599 | COc1cncc(-c2cc(Nc3cccc(N4CCCC4C)n3)c3nccn3n2)c1 (stereo not drawn) [Example I-82, [6-(5-Methoxy-pyridin-3-yl)-imidazo[1,2-b]pyridazin-8-yl]-[6-(2-methyl-pyrrolidin-1-yl)-pyridin-2-yl]-amine] |
| 0.61 | CC1CCCN1c1cccc(Nc2cc(-c3ccc(C(C)(C)C)cc3)nn3ccnc23)n1 (stereo not drawn) [Example I-85, [6-(4-tert-Butyl-phenyl)-imidazo[1,2-b]pyridazin-8-yl]-[6-(2-methyl-pyrrolidin-1-yl)-pyridin-2-yl]-amine] |
| 0.102 | CC1CCCN1c1cccc(Nc2cc(-c3cccc(O)c3)nn3ccnc23)n1 (stereo not drawn) [Example I-86, 3-{8-[6-(2-Methyl-pyrrolidin-1-yl)-pyridin-2-ylamino]-imidazo[1,2-b]pyridazin-6-yl}-phenol] |
| 0.21 | CC1CCCN1c1cccc(Nc2cc(-c3cccc(OCCN4CCCCC4)c3)nn3ccnc23)n1 (stereo not drawn) [Example I-87, [6-(2-Methyl-pyrrolidin-1-yl)-pyridin-2-yl]-{6-[3-(2-piperidin-1-yl-ethoxy)-phenyl]-imidazo[1,2-b]pyridazin-8-yl}-amine] |
| 0.051 | CC1CCCN1c1cccc(Nc2cc(-c3cccc(OCCN4CCOCC4)c3)nn3ccnc23)n1 (stereo not drawn) [Example I-88, [6-(2-Methyl-pyrrolidin-1-yl)-pyridin-2-yl]-{6-[3-(2-morpholin-4-yl-ethoxy)-phenyl]-imidazo[1,2-b]pyridazin-8-yl}-amine] |
| 0.157 | CC1CCCN1c1cccc(Nc2cc(-c3ccc(OCCN4CCOCC4)cc3)nn3ccnc23)n1 (stereo not drawn) [Example I-90, [6-(2-Methyl-pyrrolidin-1-yl)-pyridin-2-yl]-{6-[4-(2-morpholin-4-yl-ethoxy)-phenyl]-imidazo[1,2-b]pyridazin-8-yl}-amine] |
| 0.261 | CCN(CC)CCOc1cccc(-c2cc(Nc3cccc(N4CCCC4C)n3)c3nccn3n2)c1 (stereo not drawn) [Example I-91, {6-[3-(2-Diethylamino-ethoxy)-phenyl]-imidazo[1,2-b]pyridazin-8-yl}-[6-(2-methyl-pyrrolidin-1-yl)-pyridin-2-yl]-amine] |
